The results in this text go back to paper PMC9636434, “Discovery of small molecule agonists of the Relaxin Family Peptide Receptor 2” (Communications Biology, 2022).

For assay [1], the target named is T1, WT RXFP1 (Homo sapiens, UniProt Q9HBX9).
T1 construct: expressed in transfected cells; host or cells: HEK293T, transient transfection, pcDNA3.1/Zeo(+)
T1 sequence (Q9HBX9 1-757): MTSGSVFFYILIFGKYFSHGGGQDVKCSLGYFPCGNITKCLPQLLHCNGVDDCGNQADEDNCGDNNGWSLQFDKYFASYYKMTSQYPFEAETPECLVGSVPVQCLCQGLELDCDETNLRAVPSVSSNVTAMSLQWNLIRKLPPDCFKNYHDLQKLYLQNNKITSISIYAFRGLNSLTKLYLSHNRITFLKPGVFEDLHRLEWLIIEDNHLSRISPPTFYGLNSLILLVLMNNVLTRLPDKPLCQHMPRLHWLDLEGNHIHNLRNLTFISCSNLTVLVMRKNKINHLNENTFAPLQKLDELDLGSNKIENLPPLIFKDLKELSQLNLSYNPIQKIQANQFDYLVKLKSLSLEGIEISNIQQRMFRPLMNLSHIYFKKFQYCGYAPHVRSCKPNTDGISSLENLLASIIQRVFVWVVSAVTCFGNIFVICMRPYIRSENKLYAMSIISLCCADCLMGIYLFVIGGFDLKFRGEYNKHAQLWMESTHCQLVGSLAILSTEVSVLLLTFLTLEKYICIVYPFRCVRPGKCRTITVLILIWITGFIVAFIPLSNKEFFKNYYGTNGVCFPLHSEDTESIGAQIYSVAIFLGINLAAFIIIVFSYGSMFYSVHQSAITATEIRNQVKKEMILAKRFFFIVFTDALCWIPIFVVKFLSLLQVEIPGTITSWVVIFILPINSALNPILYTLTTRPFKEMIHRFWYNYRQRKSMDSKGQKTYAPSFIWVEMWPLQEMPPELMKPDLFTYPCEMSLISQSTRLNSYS
Briefly: HTRF cAMP assay in HEK293T cells transiently transfected with WT RXFP1. Type of assay: cell-based. The procedure: Fig. 2 6641 is an allosteric agonist of RXFP2. a HEK-RXFP2 cells co-treated with serial dilutions of INSL3 B dimer antagonist and 30 nM INSL3 or 0.28 µM 6641. HTRF cAMP dose-response inhibition curves were normalized to activity without antagonist co-treatment as 0% inhibition. b HTRF cAMP assay in HEK293T cells transiently transfected with WT or chimeric receptors. Chimera RXFP2-1 contains the extracellular domain of RXFP2 and the transmembrane domain of RXFP1, while chimera RXFP1-2 contains the extracellular domain of RXFP1 and the transmembrane domain of RXFP2. For each receptor, cAMP response induced by INSL3 and 6641 was normalized to FSK (2 µM) as 100% efficacy and DMSO vehicle as 0% efficacy. Emax and EC50 were calculated using four parameter nonlinear fit dose-response curves. Results are expressed as mean ± SEM of 3 independent experiments. Diagrams of the chimeric receptors were produced using GPCRdb.org[58], [59].
Complementary RXFP2-1 and RXFP1-2 chimeric receptors were used to further investigate the involvement of the RXFP2 extracellular and transmembrane domains on 6641 activity. RXFP2-1 has the extracellular domain of RXFP2 and transmembrane domain of RXFP1, and RXFP1-2 is its complement.
The HTRF Gs dynamic cAMP assay kit (CisBio, Bedford, MA) was used to measure intracellular cAMP accumulation in HEK293T cells (ATCC, Manassas, VA)[56]. […] The cell stock was verified mycoplasma free and authenticated by ATCC. Transient transfection was accomplished by treating cells in a 6-well plate with a mixture of 2 μg plasmid and 6 μL Lipofectamine 2000 (Invitrogen, Waltham, MA) per manufacturer’s protocol and incubating overnight. For cAMP measurement in 96-well format, HEK293T cells stably transfected with human RXFP2 (HEK-RXFP2), human RXFP1 (HEK-RXFP1), mouse Rxfp1 (HEK-Rxfp1) or transiently transfected with human RXFP1-RXFP2 chimeric receptors were seeded between 7500 and 30,000 cells per well, depending on cell line responsiveness, in serum-free DMEM medium and incubated overnight at 37 °C, 5% CO2. After 18 h, cells were treated with a titration of compound, 2 μM forskolin, or DMSO vehicle. Control wells were also treated with a titration of INSL3 (Phoenix Pharmaceuticals, Burlingame, CA) or human recombinant relaxin 2 (Peprotech, Cranbury, NJ). For the RXFP2 antagonist experiment, cells were co-treated with 0.28 μM compound or 30 nM INSL3 and a titration of the INSL3 B dimer antagonist[38],[39]. For the INSL3 allosteric modulation experiment, cells were co-treated with 0.025, 0.0025, or 0.00025 μM of compound and a titration of INSL3. […] Plates were incubated for 1 h at room temperature and the signal was read on a CLARIOstar plate reader (BMG Labtech, Ortenberg, Germany) at 665 and 620 nm emission wavelengths.

Assay [2] concerns the target T2, human RXFP3 (Homo sapiens, UniProt Q9NSD7).
T2 construct: host or cells: HEK293T (transient)
T2 sequence (Q9NSD7 1-469): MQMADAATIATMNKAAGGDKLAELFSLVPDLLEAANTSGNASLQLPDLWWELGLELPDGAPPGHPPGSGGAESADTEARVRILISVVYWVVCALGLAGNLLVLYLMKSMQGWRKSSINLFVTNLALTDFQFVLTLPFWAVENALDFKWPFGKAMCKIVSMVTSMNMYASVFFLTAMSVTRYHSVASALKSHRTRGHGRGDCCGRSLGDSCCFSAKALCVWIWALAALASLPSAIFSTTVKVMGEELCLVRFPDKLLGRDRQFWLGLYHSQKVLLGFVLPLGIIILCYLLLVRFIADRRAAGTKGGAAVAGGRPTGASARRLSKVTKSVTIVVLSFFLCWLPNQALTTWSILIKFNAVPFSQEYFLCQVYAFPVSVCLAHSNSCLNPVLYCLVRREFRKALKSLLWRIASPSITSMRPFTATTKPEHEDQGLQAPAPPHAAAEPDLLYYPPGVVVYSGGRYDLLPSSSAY
Briefly: GloSensor cAMP assay in RXFP3 transiently transfected HEK293T cells. Type of assay: cell-based. The following applies: for RLU (cAMP, raw): RXFP3, 0.1 µM isoproterenol, replicates (1)-(4). (In general: Changes in cAMP serve as a functional read-out for many G protein-coupled receptors.)

Molecules are shown by their SMILES. Values joined by “and” are separate entries in the source; they are usually repeats but may differ in a detail not shown here. Equal entries are not always repeated.

Turning to `O=C1Nc2ccc(-c3cc(C(F)(F)F)cc(C(F)(F)F)c3)cc2C(=O)N2CCN(C(=O)COc3ccc(OC(F)(F)F)cc3I)C[C@@H]12` [compound 6641], the “EC50 (1)-(3)” value in assay [1] (6641, individual experiments) was “Inactive”. Besides, the “EC50 (AVERAGE)” value in assay [1] (6641, mean of 3) is “Inactive”. Moreover, the “Emax (1)-(3)” value in assay [1] (individual experiments, FSK (2 µM) = 100% efficacy) was “Inactive”. Also, the “Emax (AVERAGE)” value in assay [1] (mean of 3, FSK (2 µM) = 100% efficacy) is on record as “Inactive”. The “RLU (cAMP, raw)” value is 1801.05 RLU and 1842.11 RLU and 1885.55 RLU and 1904.59 RLU in assay [2] (Log [M] -4.52); 1713.57 RLU and 1782 RLU and 1870.67 RLU and 1664.77 RLU in assay [2] (Log [M] -5); 1763.55 RLU and 1915.9 RLU and 1776.65 RLU and 1719.52 RLU in assay [2] (Log [M] -5.52); 2045.03 RLU and 1694.52 RLU and 1928.99 RLU and 1704.05 RLU in assay [2] (Log [M] -6); 1626.68 RLU and 1976 RLU and 1728.44 RLU and 1743.92 RLU in assay [2] (Log [M] -6.52); 2133.7 RLU and 1895.07 RLU and 2053.37 RLU and 1981.36 RLU in assay [2] (Log [M] -7). Further, the “RLU (cAMP, raw)” value in assay [2] (Log [M] -7.52) is 1652.87 RLU and 1825.44 RLU and 1426.73 RLU and 1642.75 RLU; in assay [2] (Log [M] -8) it was 1859.96 RLU and 1760.58 RLU and 1940.89 RLU and 1974.81 RLU; in assay [2] (Log [M] -8.52), 2192.97 RLU and 1919.63 RLU; in assay [2] (Log [M] -9), 1940.02 RLU and 2105.38 RLU and 1999.67 RLU and 2166.54 RLU; in assay [2] (Log [M] -9.52) it was 2103.87 RLU and 2056.3 RLU and 1688.58 RLU; in assay [2] (Log [M] -10), 1933.98 RLU and 1927.18 RLU and 2266.97 RLU and 1930.96 RLU. Besides, the “RLU (cAMP, raw)” value in assay [2] (Log [M] -10.52) was 1985.33 RLU and 1919.63 RLU and 2191.46 RLU and 1872.07 RLU; in assay [2] (Log [M] -11), 2121.99 RLU and 2313.03 RLU and 1878.86 RLU and 1896.98 RLU; in assay [2] (Log [M] -11.52), 2326.62 RLU and 1848.66 RLU and 1903.78 RLU and 1954.37 RLU; in assay [2] (Log [M] -12), 1756.54 RLU and 2242.81 RLU and 2177.87 RLU and 2001.94 RLU. The “activation of RXFP3 (cAMP inhibition)” value in assay [2] (cAMP induced by 0.1 µM isoproterenol) is “does not activate”.
